Holding throughout (type): in vivo, mouse
Experiment [1] has as its system KK-A^y/Ta Jcl mice. Description: Glucose loading test after repeated administration for 14 days (Example 1). How it is done: (§1) As from Day 14 afterwards, the animals after being fasted for 18 hours or more were loaded orally with a glucose solution (2 g/kg, 10 mL/kg), whereby the blood-sugar levels were measured before, and 120 min. after, the said glucose loading. Each of the compounds was given orally to the animals 3 hours prior to the glucose loading, and the whole blood was drawn from each of the animals under anesthesia. Each of the said blood samples was centrifuged to yield a blood plasma, and the resultant blood plasmas were all preserved under freezing in a ultra-low-temperature freezer for subsequent use in the below-described measurements.
(§2) The blood-sugar level, total cholesterol level (hereinafter referred to briefly as “TC level”) and triglyceride level (hereinafter referred to briefly as “TG level”) were detected individually in accordance with the hexokinase/G-6-PDH method, enzyme method and GPO/HDAOS method, and measured with use of Biochemical Auto-Analyzer (Model AU 400, manufactured by Olympus Co. of Japan). The plasma insulin level (hereinafter referred to briefly as “IRI level”) and the plasma glucagon level (hereinafter referred to briefly as “IRG level”) were detected individually with the ELISA method (Lebisinsulin Mouse Insulin Kit, produced by K.K. Shibayagi of Japan) and the ELISA method (YK090 Glucagon EIA Kit, produced by K.K. Yanaihara Kenkyuu-sho of Japan), followed by measurement with use of a plate reader (Immuno Mini NJ-2300, Nalge Nunc International K.K. of Japan).
(§3) The blood-sugar, TC, TG, IRI and IRG levels and the body weight were expressed as a mean value±standard deviation as calculated for each group of animals. With reference to the significance test between the group treated through administration of the medium and each group treated through administration of the compound, the F test was effected to analyze the data and then, the Student's t-test and Aspin-Welch's t-test were used in cases where the variance between the two groups was determined to be equal and unequal, respectively. Referring to the significance level, less than 5% (p<0.05) was considered significant, and the significance level was expressed as divided into the two events of less than 1% (**: p<0.01) and less than 5% (*: p<0.05).

Experiment [2] concerns KK-A^y/Ta Jcl mice. The experiment is described as follows: Plasma TC, TG, blood-sugar, IRI and IRG levels 3 hours subsequent to the glucose-loading test (Example 1). The following applies: 3 hours subsequent to glucose-loading test, after 14 days 30 mg/kg p.o. How it is done: as §1, §2, §3
The subject of experiment [3] is KK-A^y/Ta Jcl mice. Description: Blood-sugar level at satiety, dose-ranging food admixture up to Day 28 (Example 3). The following applies: for Blood-sugar level: end of the test (Day 28). The procedure: KK-A^y/Ta Jcl Mice (male, 6-weeks aged, the number of cases; 8 animals) were treated through individual administration, in the form of an admixture with a food, of the Test Compound 2 (N-allyl-N-{(2E)-3-[4-({4-[amino(imino)methyl]phenoxy}-carbonyl)phenyl]-2-methyl-2-propenoyl}glycine/dimethanesulfonate) of the present invention at the daily doses of 0.56 mg, 1.68 mg, 5.6 mg and 16.8 mg/100 g-food, respectively, and the Control Compound 1 (5-{4-[2-(5-ethylpyridine-2-yl)-ethoxy]benzyl}-1,3-thiazolidine-2,4-dion; pioglitazone) at the daily doses of 5.6 mg and 16.8 mg/100 g-food, respectively, […], whereby the control group was fed with an ordinary food alone.
Blood was drawn from the tail vein individually on the day preceding to administration of each compound in the form of an admixture with a food, and on Days 6, 11, 16, 21 and 28 of administration.
The blood samples taken from the tail vein on the respective specified days after the administration were subjected to measurement of the blood-sugar level in accordance with the method as described in Example 1, while the plasma glucagon level after the forced oral administration performed on Days 28 was measured in accordance with the ELISA method as described in Example 1. Also, the glycosylated hemoglobin (HbA1c) and GLP-1 levels were determined in accordance with the latex coagulation method and the ELISA method (YK160, GLP-1 EIA Kit, produced by K.K. Yanaihara Kenkyu-sho of Japan), respectively, while the TG level was measured in accordance with the method as described in Example 1. The total pancreatic insulin content after oral administration of each compound was determined by adding 75% ethanol to the isolated pancreas as frozen, followed by homogenization, and collecting the insulin fraction through Sep-Pak (C18; WATER) treatment of the supernatant liquid produced by centrifugation, followed by determination with the ELIZA method.

In experiment [4] the test system is KK-A^y/Ta Jcl mice. Description: Blood-sugar level, administration as admixture with food (Example 2). How it is done: KK-A^y/Ta Jcl Mice (male, 6- to 7-weeks aged, the number of cases; 8 animals) were treated through individual administration, in the form of an admixture with a food, of the Test Compound 2 (N-allyl-N-{(2E)-3-[4-({4-[amino(imino)methyl]phenoxy}-carbonyl)phenyl]-2-methyl-2-propenoyl}glycine/dimethane-sulfonate) of the present invention and the Control Compound 1 (5-(4-[2-(5-ethylpyridine-2-yl)ethoxy]benzyl)-1,3-thiazolidine-2,4-dione; pioglitazone) at the daily dose of 16.8 mg/100 g-food for 7 consecutive days, whereby the control group was fed with an ordinary food alone.
Blood was drawn from the tail vein individually on the day (Day 1) preceding to administration of the Test Compound in the form of an admixture with a food, and on Days 2, 5, 7 and 14 of administration, and the blood samples were subjected to measurement of the blood-sugar level in accordance with the same procedure as described in Example 1, while, at the same time, the animals were weighed.

The subject of experiment [5] is KK-A^y/Ta Jcl mice. The experiment is described as follows: Weights of pancreas, liver and kidney at autopsy (Example 3). The procedure: On Day 28 of administration of each compound in the form of an admixture with a food, furthermore, each animal after blood had been drawn from the tail vein was treated through individual forced oral administration of the Test Compound 2 in the form of the solutions individually consisting of 0.2, 0.6, 2.0 and 6.0 mg/mL-0.5% CMC suspension in each 5 mL/kg portion, as well as the Control Compound 1 in the form of the solutions individually consisting of 2.0 and 6 mg/mL-0.5% CMC suspension in each 5 ml/kg portion, followed by blood drawing 30 min. later and autopsy to thereby measure the weights of the pancreas, liver and kidney, whereby the control group was treated through administration of the 0.5% CMC suspension in the same portion.

[6] abbreviates: autopsy Day 28, Dose 16.8 (g/100 g-food).

For the compound `CCc1ccc(CCOc2ccc(CC3SC(=O)NC3=O)cc2)nc1` (stereo not drawn) [Control Compound 1, 5-{4-[2-(5-ethylpyridine-2-yl)ethoxy]benzyl}-1,3-thiazolidine-2,4-dione, reference compound], in the experiment on KK-A^y/Ta Jcl mice [1] (after 14 days 30 mg/kg p.o., fasted, compound 3 hours prior to loading), the “Blood-sugar level before glucose loading” value amounted to 156.9 ± 5.3 mg/dL. In the experiment with KK-A^y/Ta Jcl mice [1] (after 14 days 30 mg/kg p.o., glucose 2 g/kg orally), the “Blood-sugar level 120 Min. after glucose loading” value came to 236.9 ± 19.6 mg/dL. In the experiment with KK-A^y/Ta Jcl mice [1] (after repeated administration for 14 consecutive days), the “Blood-sugar lowering action in the glucose loading test vs medium control group (in words)” value is “not observed to produce any significant difference”. In the experiment on KK-A^y/Ta Jcl mice [2], the Blood-sugar level was found to be 289.9 ± 20.6 mg/dL, the IRG (plasma glucagon level) came to 488 ± 45.8 pg/mL, the “IRI (plasma insulin level)” value was found to be 1.25 ± 0.28 ng/mL and the TC is recorded as 114.6 ± 4.8 mg/dL. The TG in the experiment with KK-A^y/Ta Jcl mice [2] is on record as 72.7 ± 4.7 mg/dL. Further, in the experiment with KK-A^y/Ta Jcl mice [3] (16.8 mg/100 g group), the “Blood-sugar lowering effect at the end of the test (Day 28) (in words)” value was “no blood-sugar lowering effect observed”; the “Time-course changes in blood-sugar level at satiety vs Control Group (in words, FIG. 1)” value was “significant drops in blood-sugar level on Days 6 and 11”. In addition, the Blood-sugar level in the experiment with KK-A^y/Ta Jcl mice [3] (Dose 5.6 (g/100 g-food)) was 561.6 ± 28.2 mg/dL. The Blood-sugar level with KK-A^y/Ta Jcl mice [3] (Dose 16.8 (g/100 g-food)) is 497.0 ± 26.8 mg/dL. Besides, in the experiment on KK-A^y/Ta Jcl mice [4] (16.8 mg/100 g-food admixture), the “Blood-sugar level Day 2” value was determined as 323.3 ± 15.7 mg/dL, the “Blood-sugar level Day 5” value was found to be 350.0 ± 13.6 mg/dL, the “Blood-sugar level Day 7” value is 311.3 ± 19.4 mg/dL and the “Blood-sugar level Day 14” value is listed as 270.5 ± 10.8 mg/dL. The “Blood-sugar level Day 1” value in the experiment on KK-A^y/Ta Jcl mice [4] (day preceding administration (baseline), 16.8 mg/100 g-food group) stood at 309.3 ± 21.2 mg/dL. The “Weight of the liver (in words)” value with KK-A^y/Ta Jcl mice [5] (autopsy Day 28) was “raise further the weight of the liver”. For the same compound, in the experiment with KK-A^y/Ta Jcl mice [5] (setting [6]), the “Weight Kidney” value is 0.49 ± 0.02 g, the “Weight Liver” value is listed as 2.62 ± 0.11 g and the “Weight Pancreas” value came out at 0.36 ± 0.01 g.

The values are drawn from US7671057B2, “Therapeutic agent for type II diabetes comprising protease-inhibiting compound” (Ono Pharmaceutical Co., Ltd., priority 2004, dated 2010).
